Assay results: patent US10246456B2, “IRAK4 inhibiting agents” (BIOGEN MA INC., priority 2014, dated 2019)

What follows are compounds tested against IRAK4 (Homo sapiens (Human), UniProt Q9NWZ3) (assay: IRAK-4 AlphaScreen biochemical kinase assay). Details: 1 nM IRAK4, 1 mM ATP, 3.5 h at RT.
Experimental: The biochemical assay is in a AlphaScreen format. The kinase reaction is based on the IRAK-4 phosphorylation of a biotin labeled peptide. The phosphopeptide is incubated with anti-phosphothreonine antibody as well as streptavidin- and protein A-coated beads. Binding of the protein-A coated beads to the antibody and the streptavidin beads to the peptide, leads to an energy transfer from one bead to the other, ultimately producing a luminescent/fluorescent signal.

IRAK4, sequence (Q9NWZ3 whole entry, species assumed): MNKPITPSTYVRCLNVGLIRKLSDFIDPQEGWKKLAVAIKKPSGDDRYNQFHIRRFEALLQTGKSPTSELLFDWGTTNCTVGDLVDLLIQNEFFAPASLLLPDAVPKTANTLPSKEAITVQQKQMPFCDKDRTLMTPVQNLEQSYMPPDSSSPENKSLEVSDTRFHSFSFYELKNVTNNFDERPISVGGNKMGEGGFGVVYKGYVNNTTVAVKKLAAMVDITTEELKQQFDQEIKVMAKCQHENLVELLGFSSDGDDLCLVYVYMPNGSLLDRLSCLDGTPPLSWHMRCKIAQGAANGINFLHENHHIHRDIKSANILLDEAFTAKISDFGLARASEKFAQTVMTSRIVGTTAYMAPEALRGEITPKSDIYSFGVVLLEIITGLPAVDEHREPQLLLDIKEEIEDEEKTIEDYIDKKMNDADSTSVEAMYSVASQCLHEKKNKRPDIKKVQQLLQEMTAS

IC50 | Compound
< 100 nM | CCC[C@H](N)c1cncc(-c2ccc3cnn(-c4cccc(CO)n4)c3c2)n1 [Example 407, (S)-(6-(6-(6-(1-aminobutyl)pyrazin-2-yl)-1H-indazol-1-yl)pyridin-2-yl)methanol]
< 100 nM | C[C@H](N)c1cccc(-c2ccc3cnn(-c4cccc(CO)n4)c3c2)n1 [Example 143, (S)-(6-(6-(6-(1-aminoethyl)pyridin-2-yl)-1H-indazol-1-yl)pyridin-2-yl)methanol]
< 100 nM | Cc1cc(-c2cc(-c3cccc([C@@H](N)CCCO)n3)cc3c2cnn3-c2cccc(CO)n2)nn1C [Example 392, (S)-4-amino-4-(6-(4-(1,5-dimethyl-1H-pyrazol-3-yl)-1-(6-(hydroxymethyl)pyridin-2-yl)-1H-indazol-6-yl)pyridin-2-yl)butan-1-ol]
100 to 1000 nM | CC(N)c1cccc(-c2ccc3cnn(-c4cccc(C(C)(C)C(N)=O)n4)c3c2)n1 (centres unmarked) [Example 301, 2-(6-(6-(6-(1-aminoethyl)pyridin-2-yl)-1H-indazol-1-yl)pyridin-2-yl)-2-methylpropanamide]
< 100 nM | CC[C@@H](N)c1cccc(-c2ccc3cnn(-c4cccc(CO)n4)c3c2)n1 [Example 322, (R)-(6-(6-(6-(1-aminopropyl)pyridin-2-yl)-1H-indazol-1-yl)pyridin-2-yl)methanol]
1000 to 10000 nM | Cc1cc(C)nc(-n2ncc3ccc(-c4cccc(C(C)N)n4)cc32)c1 (centres unmarked) [Example 315, 1-(6-(1-(4,6-dimethylpyridin-2-yl)-1H-indazol-6-yl)pyridin-2-yl)ethanamine]
< 100 nM | Cc1cccc(-n2ncc3c(C#N)cc(-c4cccc(C(C)N)n4)cc32)n1 (centres unmarked) [Example 214, 6-(6-(1-aminoethyl)pyridin-2-yl)-1-(6-methylpyridin-2-yl)-1H-indazole-4-carbonitrile]
< 100 nM | CC(=O)C[C@H](N)c1cccc(-c2ccc3cnn(-c4cccc(CO)n4)c3c2)n1 [Example 449, (S)-4-amino-4-(6-(1-(6-(hydroxymethyl)pyridin-2-yl)-1H-indazol-6-yl)pyridin-2-yl)butan-2-one]
< 100 nM | CCC[C@@H](N)c1cncc(-c2ccc3cnn(-c4cccc(CO)n4)c3c2)n1 [Example 408, (R)-(6-(6-(6-(1-aminobutyl)pyrazin-2-yl)-1H-indazol-1-yl)pyridin-2-yl)methanol]
< 100 nM | Cc1cccc(-n2ncc3c(N(C)C)cc(-c4cccc(C(C)N)n4)cc32)n1 (centres unmarked) [Example 102, 6-(6-(1-aminoethyl)pyridin-2-yl)-N,N-dimethyl-1-(6-methylpyridin-2-yl)-1H-indazol-4-amine]
< 100 nM | C[C@H](N)c1cccc(-c2cc(-c3cccnn3)c3cnn(-c4cccc(CO)n4)c3c2)n1 [Example 394, (S)-(6-(6-(6-(1-aminoethyl)pyridin-2-yl)-4-(pyridazin-3-yl)-1H-indazol-1-yl)pyridin-2-yl)methanol]
< 100 nM | COCCC[C@H](N)c1cccc(-c2cc(-c3ccn(C)n3)c3cnn(-c4cccc(CO)n4)c3c2)n1 [Example 575, (S)-(6-(6-(6-(1-amino-4-methoxybutyl)pyridin-2-yl)-4-(1-methyl-1H-pyrazol-3-yl)-1H-indazol-1-yl)pyridin-2-yl)methanol]
< 100 nM | C[C@H](N)c1cccc(-c2cc(-c3cnccn3)c3cnn(-c4cccc(CO)n4)c3c2)n1 [Example 388, (S)-(6-(6-(6-(1-aminoethyl)pyridin-2-yl)-4-(pyrazin-2-yl)-1H-indazol-1-yl)pyridin-2-yl)methanol]

More lines, now with the values behind:

Compound | IC50
Cc1cccc(-n2ncc3ccc(-c4ccccn4)cc32)n1 [Example 306, 1-(6-methylpyridin-2-yl)-6-(pyridin-2-yl)-1H-indazole] | 100 to 1000 nM
CC(=O)c1cccc(-c2ccc3cnn(-c4cccc(C#N)n4)c3c2)n1 [Example 236, 6-(6-(6-acet6ylpyridin-2-yl)-1H-indazol-1-yl)picolinonitrile] | > 10000 nM
O=C1CCc2ccc(-c3ccc4cnn(-c5cccc(C(F)(F)F)n5)c4c3)nc21 [Example 210, 2-(1-(6-(trifluoromethyl)pyridin-2-yl)-1H-indazol-6-yl)-5H-cyclopenta[b]pyridin-7(6H)-one] | > 10000 nM
NCc1cccc(-c2ccc3cnn(-c4cccc(C(N)=O)n4)c3c2)n1 [Example 47, 6-(6-(6-(aminomethyl)pyridin-2-yl)-1H-indazol-1-yl)picolinamide] | < 100 nM
CC(O)CNC(=O)c1cccc(-n2ncc3ccc(-c4cncc(N)c4)cc32)n1 (centres unmarked) [Example 67, 6-(6-(5-aminopyridin-3-yl)-1H-indazol-1-yl)-N-(2-hydroxypropyl)picolinamide] | 1000 to 10000 nM
Cc1cccc(-n2ncc3ccc(-c4cccc(C(N)C5CC5)n4)cc32)n1 (centres unmarked) [Example 131, cyclopropyl(6-(1-(6-methylpyridin-2-yl)-1H-indazol-6-yl)pyridin-2-yl)methanamine] | < 100 nM
N#Cc1cccc(-n2ncc3ccc(-c4cncc(N)c4)cc32)c1 [Example 33, 3-(6-(5-aminopyridin-3-yl)-1H-indazol-1-yl)benzonitrile] | 100 to 1000 nM
CCC[C@H](N)c1cccc(-c2ccc3cnn(-c4cncc(C)n4)c3c2)n1 [Example 590, (S)-1-(6-(1-(6-methylpyrazin-2-yl)-1H-indazol-6-yl)pyridin-2-yl)butan-1-amine] | < 100 nM
Cc1cccc(-n2ncc3ccc(-c4cccc(C(C)N(C)C)n4)cc32)n1 (centres unmarked) [Example 220, N,N-dimethyl-1-(6-(1-(6-methylpyridin-2-yl)-1H-indazol-6-yl)pyridin-2-yl)ethanamine] | 100 to 1000 nM
N#CCCCNC(=O)c1cccc(-n2ncc3ccc(-c4cncc(N)c4)cc32)n1 [Example 71, 6-(6-(5-aminopyridin-3-yl)-1H-indazol-1-yl)-N-(3-cyanopropyl)picolinamide] | 100 to 1000 nM
N#Cc1cccc(-c2ncc3ccc(-c4cncc(N)c4)cn23)n1 [Example 76, 6-(6-(5-aminopyridin-3-yl)imidazo[1,5-a]pyridin-3-yl)picolinonitrile] | < 100 nM
CC(N)c1cccc(-c2ccc3cnn(-c4ccn(C)n4)c3c2)n1 (centres unmarked) [Example 137, 1-(6-(1-(1-methyl-1H-pyrazol-3-yl)-1H-indazol-6-yl)pyridin-2-yl)ethanamine] | 100 to 1000 nM
Cc1cccc(-n2ncc3ccc(-c4ccc(C)c(C(C)N)n4)cc32)n1 (centres unmarked) [Example 281, 1-(3-methyl-6-(1-(6-methylpyridin-2-yl)-1H-indazol-6-yl)pyridin-2-yl)ethanamine] | < 100 nM
NCc1cc(-c2cncc(N)c2)cc2c1cnn2-c1cccc(C(F)(F)F)n1 [Example 53, 5-(4-(aminomethyl)-1-(6-(trifluoromethyl)pyridin-2-yl)-1H-indazol-6-yl)pyridin-3-amine] | 100 to 1000 nM
Cc1cccc(-n2ncc3ccc(-c4cn(C)c(CO)n4)cc32)n1 [Example 257, (1-methyl-4-(1-(6-methylpyridin-2-yl)-1H-indazol-6-yl)-1H-imidazol-2-yl)methanol] | < 100 nM
CC(N)c1cccc(-c2cc(F)c3cnc(-c4cccc(C(F)(F)F)n4)n3c2)n1 (centres unmarked) [Example 317, 1-(6-(8-fluoro-3-(6-(trifluoromethyl)pyridin-2-yl)imidazo[1,5-a]pyridin-6-yl)pyridin-2-yl)ethanamine] | < 100 nM
Nc1cncc(-c2ccc3cnn(-c4cccc(C(=O)N5CC(O)C5)n4)c3c2)c1 [Example 68, (6-(6-(5-aminopyridin-3-yl)-1H-indazol-1-yl)pyridin-2-yl)(3-hydroxyazetidin-1-yl)methanone] | 100 to 1000 nM
Cc1cccc(-n2ncc3ccc(-c4cc(CN)ccn4)cc32)n1 [Example 5, (2-(1-(6-methylpyridin-2-yl)-1H-indazol-6-yl)pyridin-4-yl)methanamine] | 1000 to 10000 nM
N#Cc1cccc(-c2ncc3ccc(-c4cncc(N)c4)cn23)c1 [Example 75, 3-(6-(5-aminopyridin-3-yl)imidazo[1,5-a]pyridin-3-yl)benzonitrile] | 1000 to 10000 nM
N#CCNC(=O)c1cccc(-n2ncc3ccc(-c4cncc(N)c4)cc32)n1 [Example 73, 6-(6-(5-aminopyridin-3-yl)-1H-indazol-1-yl)-N-(cyanomethyl)picolinamide] | 1000 to 10000 nM
Cc1cccc(-n2cc3c(CN)cc(-c4cccc(C(C)N)n4)cc3n2)n1 (centres unmarked) [Example 215, 1-(6-(4-(aminomethyl)-2-(6-methylpyridin-2-yl)-2H-indazol-6-yl)pyridin-2-yl)ethanamine] | 1000 to 10000 nM
Cc1cccc(-n2ncc3ccc(-c4cccc(N)n4)cc32)n1 [Example 1, 6-(1-(6-methylpyridin-2-yl)-1H-indazol-6-yl)pyridin-2-amine] | 100 to 1000 nM
Cc1cccc(-n2ncc3ccc(-c4cc(N)ccn4)cc32)n1 [Example 3, 2-(1-(6-methylpyridin-2-yl)-1H-indazol-6-yl)pyridin-4-amine] | 1000 to 10000 nM
Cc1cccc(-n2ncc3c(C(=O)O)cc(-c4cccc(C(C)N)n4)cc32)n1 (centres unmarked) [Example 113, 6-(6-(1-aminoethyl)pyridin-2-yl)-1-(6-methylpyridin-2-yl)-1H-indazole-4-carboxylic acid] | 100 to 1000 nM
N#CCNC(=O)c1cc(-c2ccc3cnn(-c4cccc(C(F)(F)F)n4)c3c2)cc(N)n1 [Example 87, 6-amino-N-(cyanomethyl)-4-(1-(6-(trifluoromethyl)pyridin-2-yl)-1H-indazol-6-yl)picolinamide] | 100 to 1000 nM
N#CCc1cccc(-n2ncc3ccc(-c4cncc(N)c4)cc32)n1 [Example 81, 2-(6-(6-(5-aminopyridin-3-yl)-1H-indazol-1-yl)pyridin-2-yl)acetonitrile] | 100 to 1000 nM
CNC(=O)c1cc(-c2cccc(C(C)N)n2)cc2c1cnn2-c1cccc(C)n1 (centres unmarked) [Example 115, 6-(6-(1-aminoethyl)pyridin-2-yl)-N-methyl-1-(6-methylpyridin-2-yl)-1H-indazole-4-carboxamide] | < 100 nM
CC(c1cccc(-c2ccc3cnn(-c4cccc(C(F)(F)F)n4)c3c2)n1)N(C)C (centres unmarked) [Example 216, N,N-dimethyl-1-(6-(1-(6-(trifluoromethyl)pyridin-2-yl)-1H-indazol-6-yl)pyridin-2-yl)ethanamine] | < 100 nM
